Measurements as given in the NIST ThermoML archive (doi:10.1021/je200150r).

Test: xn = mol fraction of the nth substance listed
Conditions: 101 kPa, Liquid; for viscosity: Capillary tube (Ostwald / Ubbelohde) method; for mass density: Pycnometric method

OCc1ccccc1 [benzenemethanol] + CCC(C)=O
Conditions | mass density, 303.15 K [kg/m3] | mass density, 308.15 K [kg/m3] | mass density, 313.15 K [kg/m3] | mass density, 318.15 K [kg/m3] | mass density, 323.15 K [kg/m3] | viscosity, 303.15 K [mPa·s] | viscosity, 308.15 K [mPa·s] | viscosity, 313.15 K [mPa·s] | viscosity, 318.15 K [mPa·s] | viscosity, 323.15 K [mPa·s]
x1 = 0.1003 | 825.4 | 820.4 | 815.4 | 810.4 | 805.3 | 0.446 | 0.424 | 0.403 | 0.385 | 0.368
x1 = 0.2 | 854.7 | 849.9 | 845.1 | 840.3 | 835.5 | 0.554 | 0.524 | 0.497 | 0.472 | 0.451
x1 = 0.301 | 882.5 | 877.8 | 873 | 868.3 | 863.6 | 0.697 | 0.655 | 0.616 | 0.582 | 0.551
x1 = 0.3991 | 907.5 | 903 | 898.4 | 893.9 | 889.3 | 0.876 | 0.818 | 0.765 | 0.718 | 0.676
x1 = 0.5001 | 932.6 | 928.2 | 923.8 | 919.4 | 915 | 1.131 | 1.046 | 0.97 | 0.904 | 0.845
x1 = 0.6 | 956.3 | 952 | 947.8 | 943.6 | 939.3 | 1.476 | 1.351 | 1.242 | 1.146 | 1.063
x1 = 0.7008 | 978.2 | 974.1 | 969.9 | 965.8 | 961.7 | 1.947 | 1.761 | 1.599 | 1.461 | 1.341
x1 = 0.8001 | 998.5 | 994.6 | 990.5 | 985.6 | 982.7 | 2.586 | 2.307 | 2.063 | 1.866 | 1.694
x1 = 0.8997 | 1018.1 | 1014.3 | 1010.4 | 1006.5 | 1002.7 | 3.452 | 3.033 | 2.682 | 2.391 | 2.144
x1 = 1 | 1037.6 | 1033.8 | 1030.1 | 1026.3 | 1022.5 | 4.689 | 4.058 | 3.531 | 3.103 | 2.747
